PMC12752606, “METTL10‐Mediated PIAS3 Methylation Links Purine Metabolism to Gastric Cancer Progression” (Advanced Science, 2025)
Residues, ends and D or L forms follow the SMILES beside them. *: point of attachment. Cbz = O=C(OCc1ccccc1)*

Key:
[1] = test system: MITF levels in MKN45 cells; test: Immunoblotting of MITF in METTL10-knockdown cells treated with MG132; assay type: cell-based; conditions: MG132 5 µM for 5 hours
Experimental: (§1) Protein extraction from tissues or cells was performed by lysis buffer (20 mM Tris‐HCl (pH 7.5), 150 mM NaCl, 1 mM EDTA, 1 mM EGTA, 2.5 mM sodium pyrophosphate, 1 mM β‐glycerolphosphate, 1% Triton X‐100) supplemented with 1% phenylmethylsulfonyl fluoride (PMSF; Solarbio, P0100) and protease inhibitor cocktail (Apexbio, K1007) and lysed at 4 °C for 60 min, followed by centrifugation at 12000 g for 15 min at 4 °C. For Immunoblotting, the protein concentration was determined using the Pierce BCA Protein Assay Kit (Thermo Fisher Scientific, A55864). The protein samples were denatured by boiling in SDS‐PAGE loading buffer. For immunoprecipitation, antibodies were incubated with Dynabeads Protein G (Thermo, 10004D) at 4 °C for 4 h. The supernatant was then incubated with magnetic beads conjugated with antibodies or anti‐FLAG‐M2 magnetic beads (Sigma–Aldrich, M8823) at 4 °C overnight. Following incubation, the magnetic beads were washed three times with lysis buffer and then boiled in SDS‐PAGE loading buffer. The proteins were separated by sodium dodecyl sulfate polyacrylamide gel electrophoresis (SDS‐PAGE) with One‐Step PAGE Gel Fast Preparation Kit (Vazyme), and then transferred to the PVDF Membrane (Bio‐Rad). After blocking with a protein‐free rapid blocking buffer (Epizyme, PS108P) for 15 min, the membranes were incubated with primary antibodies at 4 °C overnight. […]

[2] = test system: MITF protein levels in HA-PIAS3-overexpressing MKN45 cells; test: Immunoblotting of MITF in PIAS3-overexpressing cells treated with MG132; assay type: cell-based; conditions: MG132 5 µM for 5 h
Experimental: as §1

## CC(C)C[C@@H](C=O)NC(=O)[C@H](CC(C)C)NC(=O)[C@H](CC(C)C)NC(=O)OCc1ccccc1 [MG132] (Cbz-Leu-Leu-Leu-aldehyde)
[1]
  Effect on decrease in MITF levels caused by knockdown of METTL10: completely eliminated the decrease in MITF levels
[2]
  PIAS3-mediated degradation of MITF: inhibited
